pIC50: −log10 of the molar value.
Molecular target: Protein arginine deiminase 4 (PAD4) (Homo sapiens, UniProt Q9UM07)
Assay: PAD4 ammonia release assay
Format: biochemical
Conditions: PAD4 ammonia release assay, BAEE substrate, 60 min at RT; read-out: Average IC50 Abs
Method: 1) Compound preparation: The compounds were diluted to 80× final concentrations. 2) The compounds were transferred to a 384-well assay plate by Tecan. DMSO: 1.25%. 3) Preparation of 1×Assay buffer: 100 mM HEPES, PH=8.0, 2 mM CaCl2, 50 mM NaCl, 0.1 mM TCEP, 0.6 mg/ml BSA. 4) 2× enzyme working solution (PAD4:20 nM) was prepared with assay buffer, and 10 μL of the obtained working solution were added to the 384-well assay plates. 5) The plate was centrifuged at 1000 rpm for 1 min. 6) After the centrifuge, the plate was incubated at RT for 15 min. 7) 2×BAEE substrate mix (600 μM) was prepared with assay buffer and 10 μL of the obtained substrate mix were added to each well. 8) The plate was centrifuged at 1000 rpm for 1 min and then incubated at RT for 60 min. 9) 1.5× detection mix (DTT:4 mM, OPA:3 mM, EDTA: 30 mM) was prepared, and 10 μL of the mix were added to the plate. 10) The plate was centrifuged at 1000 rpm for 1 min and then incubated at RT for 120 min. 11) The 384-well plates were placed into the Envision (PerkinElmer) and the assay data were collected.
The percent (%) inhibition at each concentration of compound was calculated based on and relative to the signal in the HPE (50 μM ref. compound) and ZPE (1.25% DMSO) wells included within each assay plate. The HPE worked as 100% inhibition, and the ZPE worked as 0% inhibition. The concentrations and % inhibition values for tested compounds were plotted and the concentration of compound required for 50% inhibition (IC50) was determined with a Four-parameter logistic dose response equation. The endpoint value (IC50) for the reference compound was evaluated in each experiment as a quality control measure. If the endpoint value is within 3-fold of the expected value, then the experiment quality is deemed as acceptable. The results are provided in Table 1 below. ≤0.1 μM=“++++”; >0.1 and ≤0.5 μM=“+++”; >0.5 and ≤5.0 μM=“++”; >5.0 μM=“+”. “−”=not available.

Sequence of Protein arginine deiminase 4 (PAD4) (Q9UM07 whole entry): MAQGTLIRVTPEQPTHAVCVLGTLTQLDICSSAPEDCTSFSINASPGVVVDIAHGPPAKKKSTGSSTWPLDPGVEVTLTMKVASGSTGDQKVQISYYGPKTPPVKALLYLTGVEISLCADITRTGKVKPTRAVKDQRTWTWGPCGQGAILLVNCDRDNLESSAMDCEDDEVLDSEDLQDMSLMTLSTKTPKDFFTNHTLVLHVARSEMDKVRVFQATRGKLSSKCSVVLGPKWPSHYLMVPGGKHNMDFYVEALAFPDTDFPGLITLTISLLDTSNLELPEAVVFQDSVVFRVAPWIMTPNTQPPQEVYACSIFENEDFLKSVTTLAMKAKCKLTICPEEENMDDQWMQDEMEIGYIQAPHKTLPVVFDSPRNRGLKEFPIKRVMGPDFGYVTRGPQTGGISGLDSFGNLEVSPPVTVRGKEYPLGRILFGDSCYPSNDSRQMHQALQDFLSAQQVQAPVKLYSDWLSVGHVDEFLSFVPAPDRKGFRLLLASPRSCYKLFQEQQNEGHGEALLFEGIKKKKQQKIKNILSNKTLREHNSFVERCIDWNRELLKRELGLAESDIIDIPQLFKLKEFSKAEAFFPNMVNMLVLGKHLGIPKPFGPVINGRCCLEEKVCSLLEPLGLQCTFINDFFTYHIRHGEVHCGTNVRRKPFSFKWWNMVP

Row | pIC50 | Structure (SMILES)
1 | 5.30 to 6.30 | COc1cc(C(=O)N2C[C@H](N)C[C@@H](F)C2)cc2nc(-c3cc4cccc5c4n3CCN5C(=O)CO)n(C)c12 [Example 28, 1-(5-(5-((3R,5R)-3-amino-5-fluoropiperidine-1-carbonyl)-7-methoxy-1-methyl-1H-benzo[d]imidazol-2-yl)-2,3-dihydro-1H-pyrrolo[1,2,3-de]quinoxalin-1-yl)-2-hydroxyethan-1-one]
2 | < 5.30 | COc1cc(C(=O)N2C[C@H](N)C[C@@H](F)C2)cc2nc(-c3cc4cccc5c4n3CCN5C(=O)CC#N)n(C)c12 [Example 30, 3-(5-(5-((3R,5R)-3-amino-5-fluoropiperidine-1-carbonyl)-7-methoxy-1-methyl-1H-benzo[d]imidazol-2-yl)-2,3-dihydro-1H-pyrrolo[1,2,3-de]quinoxalin-1-yl)-3-oxopropanenitrile]
3 | 6.30 to 7.00 | COc1cc(C(=O)N2C[C@H](N)C[C@@H](F)C2)cc2nc(-c3cc4cccc5c4n3CCN5CCCO)n(Cc3ccc(F)cc3)c12 [Example 36, ((3R,5R)-3-amino-5-fluoropiperidin-1-yl)(1-(4-fluorobenzyl)-2-(1-(3-hydroxypropyl)-2,3-dihydro-1H-pyrrolo[1,2,3-de]quinoxalin-5-yl)-7-methoxy-1H-benzo[d]imidazol-5-yl)methanone]
4 | 6.30 to 7.00 | CCn1cc(Cn2c(-c3cc4cccc5c4n3CCN5CCO)nc3cc(C(=O)N4C[C@H](N)C[C@@H](F)C4)cc(F)c32)cn1 [Example 39, ((3R,5R)-3-amino-5-fluoropiperidin-1-yl)(1-((1-ethyl-1H-pyrazol-4-yl)methyl)-7-fluoro-2-(1-(2-hydroxyethyl)-2,3-dihydro-1H-pyrrolo[1,2,3-de]quinoxalin-5-yl)-1H-benzo[d]imidazol-5-yl)methanone]
5 | 6.30 to 7.00 | CCn1cc(Cn2c(-c3cc4cccc5c4n3CCN5CCCOC)nc3cc(C(=O)N4C[C@H](N)C[C@@H](F)C4)cc(F)c32)cn1 [Example 41, ((3R,5R)-3-amino-5-fluoropiperidin-1-yl)(1-((1-ethyl-1H-pyrazol-4-yl)methyl)-7-fluoro-2-(1-(3-methoxypropyl)-2,3-dihydro-1H-pyrrolo[1,2,3-de]quinoxalin-5-yl)-1H-benzo[d]imidazol-5-yl)methanone]
6 | 6.30 to 7.00 | COc1cc(C(=O)N2C[C@H](N)C[C@@H](F)C2)cc2nc(-c3cc4cccc5c4n3CCN5CCCO)n(CC(F)F)c12 [Example 51, ((3R,5R)-3-amino-5-fluoropiperidin-1-yl)(1-(2,2-difluoroethyl)-2-(1-(3-hydroxypropyl)-2,3-dihydro-1H-pyrrolo[1,2,3-de]quinoxalin-5-yl)-7-methoxy-1H-benzo[d]imidazol-5-yl)methanone]
7 | < 5.30 | COc1cc(C(=O)N2CCC3(CC3N)C2)cc2nc(-c3cc4cccc5c4n3CCN5CCCO)n(CC3CC3)c12 (centres unmarked) [Example 52, (1-amino-5-azaspiro[2.4]heptan-5-yl)(1-(cyclopropylmethyl)-2-(1-(3-hydroxypropyl)-2,3-dihydro-1H-pyrrolo[1,2,3-de]quinoxalin-5-yl)-7-methoxy-1H-benzo[d]imidazol-5-yl)methanone]
8 | < 5.30 | COc1cc(C(=O)N2CC3CNC3C2)cc2nc(-c3cc4cccc5c4n3CCN5CCCO)n(CC3CC3)c12 (centres unmarked) [Example 53, (3,6-diazabicyclo[3.2.0]heptan-3-yl)(1-(cyclopropylmethyl)-2-(1-(3-hydroxypropyl)-2,3-dihydro-1H-pyrrolo[1,2,3-de]quinoxalin-5-yl)-7-methoxy-1H-benzo[d]imidazol-5-yl)methanone]
9 | < 5.30 | COc1cc(C(=O)N2CC3C(N)C3C2)cc2nc(-c3cc4cccc5c4n3CCN5CCCO)n(CC3CC3)c12 (centres unmarked) [Example 54, (6-amino-3-azabicyclo[3.1.0]hexan-3-yl)(1-(cyclopropylmethyl)-2-(1-(3-hydroxypropyl)-2,3-dihydro-1H-pyrrolo[1,2,3-de]quinoxalin-5-yl)-7-methoxy-1H-benzo[d]imidazol-5-yl)methanone]
10 | 5.30 to 6.30 | COc1cc(C(=O)N2CCC3CC3(N)C2)cc2nc(-c3cc4cccc5c4n3CCN5CCCO)n(CC3CC3)c12 (centres unmarked) [Example 55, (1-amino-3-azabicyclo[4.1.0]heptan-3-yl)(1-(cyclopropylmethyl)-2-(1-(3-hydroxypropyl)-2,3-dihydro-1H-pyrrolo[1,2,3-de]quinoxalin-5-yl)-7-methoxy-1H-benzo[d]imidazol-5-yl)methanone]
11 | < 5.30 | COc1cc(C(=O)N2CCC3(CC2)CC3N)cc2nc(-c3cc4cccc5c4n3CCN5CCCO)n(CC3CC3)c12 (centres unmarked) [Example 56, (1-amino-6-azaspiro[2.5]octan-6-yl)(1-(cyclopropylmethyl)-2-(1-(3-hydroxypropyl)-2,3-dihydro-1H-pyrrolo[1,2,3-de]quinoxalin-5-yl)-7-methoxy-1H-benzo[d]imidazol-5-yl)methanone]
12 | 5.30 to 6.30 | COc1cc(C(=O)N2CC[C@H](F)[C@H](N)C2)cc2nc(-c3cc4cccc5c4n3CCN5CCCO)n(CC3CC3)c12 [Example 58, ((3R,4S)-3-amino-4-fluoropiperidin-1-yl)(1-(cyclopropylmethyl)-2-(1-(3-hydroxypropyl)-2,3-dihydro-1H-pyrrolo[1,2,3-de]quinoxalin-5-yl)-7-methoxy-1H-benzo[d]imidazol-5-yl)methanone]

Second part, the compound before the results:

Row | Structure (SMILES) | pIC50
13 | COc1cc(C(=O)N2C[C@H](N)C[C@@H](F)C2)cc2nc(-c3cc4cccc5c4n3CCN5Cc3cnn(C)c3)n(C)c12 [Example 26, ((3R,5R)-3-amino-5-fluoropiperidin-1-yl)(7-methoxy-1-methyl-2-(1-((1-methyl-1H-pyrazol-4-yl)methyl)-2,3-dihydro-1H-pyrrolo[1,2,3-de]quinoxalin-5-yl)-1H-benzo[d]imidazol-5-yl)methanone] | 5.30 to 6.30
14 | COc1cc(C(=O)N2CCC[C@@H](N)C2)cc2nc(-c3cc4cccc5c4n3CCN5CCCOC(=O)NC3CC3)n(C)c12 [Example 27, (R)-3-(5-(5-(3-aminopiperidine-1-carbonyl)-7-methoxy-1-methyl-1H-benzo[d]imidazol-2-yl)-2,3-dihydro-1H-pyrrolo[1,2,3-de]quinoxalin-1-yl)propyl cyclopropylcarbamate] | 5.30 to 6.30
15 | COc1cc(C(=O)N2C[C@H](N)C[C@@H](F)C2)cc2nc(-c3cc4cccc5c4n3CCN5C(=O)COC(C)=O)n(C)c12 [Example 29, 2-(5-(5-((3R,5R)-3-amino-5-fluoropiperidine-1-carbonyl)-7-methoxy-1-methyl-1H-benzo[d]imidazol-2-yl)-2,3-dihydro-1H-pyrrolo[1,2,3-de]quinoxalin-1-yl)-2-oxoethyl acetate)] | 5.30 to 6.30
16 | COc1cc(C(=O)N2CCC[C@@H](N)C2)cc2nc(-c3cc4cccc5c4n3CCN5C(=O)c3ccccc3)n(C)c12 [Example 31, (R)-(3-aminopiperidin-1-yl)(2-(1-benzoyl-2,3-dihydro-1H-pyrrolo[1,2,3-de]quinoxalin-5-yl)-7-methoxy-1-methyl-1H-benzo[d]imidazol-5-yl)methanone] | < 5.30
17 | COc1cc(C(=O)N2CCC[C@@H](N)C2)cc2nc(-c3cc4cccc5c4n3CCN5C3CC(N)C3)n(C)c12 (stereo partly drawn) [Example 32, (R)-(2-(1-(3-aminocyclobutyl)-2,3-dihydro-1H-pyrrolo[1,2,3-de]quinoxalin-5-yl)-7-methoxy-1-methyl-1H-benzo[d]imidazol-5-yl)(3-aminopiperidin-1-yl)methanone] | 5.30 to 6.30
18 | COc1cc(C(=O)N2CCC[C@@H](N)C2)cc2nc(-c3cc4cccc5c4n3CCN5C3CC(NC(C)=O)C3)n(C)c12 (stereo partly drawn) [Example 33, (R)—N-(3-(5-(5-(3-aminopiperidine-1-carbonyl)-7-methoxy-1-methyl-1H-benzo[d]imidazol-2-yl)-2,3-dihydro-1H-pyrrolo[1,2,3-de]quinoxalin-1-yl)cyclobutyl)acetamide] | 5.30 to 6.30
19 | COc1cc(C(=O)N2C[C@H]3CC[C@@H]2[C@@H]3N)cc2nc(-c3cc4cccc5c4n3CCN5CCCO)n(Cc3cnn(C)c3)c12 [Example 45, ((1R,4R,7R)-7-amino-2-azabicyclo[2.2.1]heptan-2-yl)(2-(1-(3-hydroxypropyl)-2,3-dihydro-1H-pyrrolo[1,2,3-de]quinoxalin-5-yl)-7-methoxy-1-((1-methyl-1H-pyrazol-4-yl)methyl)-1H-benzo[d]imidazol-5-yl)methanone] | < 5.30
20 | COc1cc(C(=O)N2CC(F)(F)C3(CNC3)C2)cc2nc(-c3cc4cccc5c4n3CCN5CCCO)n(CC3CC3)c12 [Example 57, (1-(cyclopropylmethyl)-2-(1-(3-hydroxypropyl)-2,3-dihydro-1H-pyrrolo[1,2,3-de]quinoxalin-5-yl)-7-methoxy-1H-benzo[d]imidazol-5-yl)(8,8-difluoro-2,6-diazaspiro[3.4]octan-6-yl)methanone] | < 5.30

Reference: patent US20250136607A1 (REGOR PHARMACEUTICALS, INC., priority 2021, published 2025)
